Target: T1, hGluR1 flip (Homo sapiens, UniProt P42261)
T1 construct: expressed in transfected cells; host or cells: CHO-K1
Experiment: AMPA receptor function-enhancing activity using calcium influx as index
Format: cell-based
Conditions: test compound 30 μM with 3 mM glutamic acid; CHO-K1/GluR1 flip/stargazin-expressing cells; 100% = 3 mM glutamic acid + 300 μM cyclothiazide, 0% = 3 mM glutamic acid alone
Source text: Experimental Example 1 Measurement Method of AMPA Receptor Function-Enhancing Activity of Compound Using Calcium Influx as Index
(1) Construction of Expression Gene
Human GluR^1 flip cDNA was amplified by PCR method using forward primer […] (SEQ ID NO: 1) and reverse primer […] (SEQ ID NO: 2) artificially synthesized using human brain-derived cDNA (BD Bioscience) as a template. The amplified product was digested with restriction enzymes EcoRI, NotI (TAKARA SHUZO CO. LTD.) and incorporated into the same site of pcDNA3.1 (+) (Invitrogen) to construct pcDNA3.1(+)/human GluR1 flip gene. Human stargazin cDNA was amplified by PCR method using forward primer […] (SEQ ID NO: 3) and reverse primer […] (SEQ ID NO: 4) artificially synthesized using human hippocampus cDNA as a template. The amplified product was digested with restriction enzymes XhoI, BamHI (TAKARA SHUZO CO. LTD.) and incorporated into the same site of pcDNA3.1(−) (Invitrogen) to construct pcDNA3.1 Zeo(−)/human stargazing gene.
(2) Construction of GluR1 Flip/Stargazin Expressing Cell
CHO-K1 cells passaged in a culture medium (Ham's F12 medium (Invitrogen) added with 10% inactivated fetal bovine serum (Morgate) and penicillin, streptomycin (Invitrogen)) were detached using 0.05% trypsin and 0.53 mM EDTA (Invitrogen) diluted with D-PBS(−). The detached cells were suspended in a culture medium, and recovered by centrifugation at 1,000 rpm. The recovered cells were re-suspended in D-PBS(−) and added into 0.4 cm electroporation cuvette (BioRad). pcDNA3.1(+)/human GluR1 flip gene (5 μg) and pcDNA3.1 Zeo(−)/human stargazin gene (15 μg) were added, and introduced into CHO-K1 cells under the conditions of 950 μFd, […] and using Gene Pulser II (BioRad). The introduced cells were cultured overnight in a culture medium. The next day, using a selection medium (culture medium added with zeocin (Invitrogen) at 250 μg/mL), the cells were plated in a 96 well plate at 250 cells/well. The clones showing drug resistance were selected, and GluR1 flip/stargazin expression clones were selected by an assay method shown below using calcium influx as an index.
(3) Measurement Method of AMPA Receptor Function-Enhancing Activity of Compound, Using Calcium Influx as an Index
CHO-K1/GluR1 flip/stargazin-expressing cells were plated on a 384 well black bottom transparent plate, and cultured for 2 days in a CO2 incubator (SANYO ELECTRIC Co. Ltd.) at 37° C. The medium of the cell plate was removed. A calcium indicator (Calcium5 Assay Kit, Molecular Devices) was diluted with an assay buffer (HESS (Thermo Fisher Scientific), 0.1% BSA (Merck Millipoer) and 10 mM HEPES (Thermo Fisher Scientific)), and 1.25 mM probenecid (Dojindo Laboratories) was added thereto. The mixture prepared above was added at 30 μL/well (100 μL/well in case of 96 wells) to the well, and the well was left standing in 37° C., CO2 incubator for 1 hr. The cell plate was set in CellLux (PerkinElmer), a mixture (15 μL) (50 μL/well in case of 96 wells) of 9 mM glutamic acid (final concentration 3 mM) diluted with an assay buffer and a test compound (test compound concentration 30 μM) was added thereto, and variation in the amount of fluorescence was measured for 3 min. The variation of fluorescence level of a well added with final concentration 3 mM of glutamic acid and 300 μM cyclothiazide (TOCRIS) was defined as 100%, the variation of fluorescence level of a well added with final concentration 3 mM of glutamic acid alone was defined as 0%, and the activity of the compound was calculated by the following formula. activity (%)=(X−C)/(T−C)×100 • T: variation of fluorescence level of well added with final concentration 3 mM of glutamic acid and 300 μM cyclothiazide • C: variation of fluorescence level of well added with final concentration 3 mM of glutamic acid alone • X: variation of fluorescence level of well added with test compound

T1 sequence (P42261 19-906 isoform P42261-2 limits assumed): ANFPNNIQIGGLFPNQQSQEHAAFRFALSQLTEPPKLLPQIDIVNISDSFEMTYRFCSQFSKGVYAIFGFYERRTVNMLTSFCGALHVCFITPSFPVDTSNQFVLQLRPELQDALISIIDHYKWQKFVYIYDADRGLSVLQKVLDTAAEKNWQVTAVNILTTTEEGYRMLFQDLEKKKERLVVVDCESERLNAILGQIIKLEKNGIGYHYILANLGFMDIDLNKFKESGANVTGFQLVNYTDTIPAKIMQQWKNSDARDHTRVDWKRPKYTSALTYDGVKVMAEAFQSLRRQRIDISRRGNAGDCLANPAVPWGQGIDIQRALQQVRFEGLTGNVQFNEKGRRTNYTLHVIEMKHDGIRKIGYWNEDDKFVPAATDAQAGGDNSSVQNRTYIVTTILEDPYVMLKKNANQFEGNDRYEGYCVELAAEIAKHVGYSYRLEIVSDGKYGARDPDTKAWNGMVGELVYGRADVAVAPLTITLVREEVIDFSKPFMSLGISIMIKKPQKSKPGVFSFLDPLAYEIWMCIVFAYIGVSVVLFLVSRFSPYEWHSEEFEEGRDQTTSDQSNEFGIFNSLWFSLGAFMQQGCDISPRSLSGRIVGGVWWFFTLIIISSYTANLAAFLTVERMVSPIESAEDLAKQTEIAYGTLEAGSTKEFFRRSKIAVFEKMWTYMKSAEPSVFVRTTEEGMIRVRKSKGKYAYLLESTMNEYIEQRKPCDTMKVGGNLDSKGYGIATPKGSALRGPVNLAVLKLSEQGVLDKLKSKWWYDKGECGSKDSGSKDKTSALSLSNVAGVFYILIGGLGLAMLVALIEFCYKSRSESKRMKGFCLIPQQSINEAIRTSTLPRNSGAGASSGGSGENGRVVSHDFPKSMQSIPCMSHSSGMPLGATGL
T1 sequence (Q9Y698 whole entry partner): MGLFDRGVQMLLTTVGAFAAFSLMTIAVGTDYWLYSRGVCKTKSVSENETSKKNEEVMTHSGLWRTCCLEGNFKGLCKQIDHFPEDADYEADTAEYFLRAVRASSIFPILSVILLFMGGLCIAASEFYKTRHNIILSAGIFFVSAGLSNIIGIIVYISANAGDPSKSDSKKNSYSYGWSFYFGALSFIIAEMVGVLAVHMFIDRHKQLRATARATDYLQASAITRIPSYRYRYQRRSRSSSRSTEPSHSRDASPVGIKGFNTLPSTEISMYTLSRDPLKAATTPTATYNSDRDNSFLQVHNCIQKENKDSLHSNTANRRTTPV

CN(CC(F)F)C(=O)c1ccc(-c2cccn3c(=O)cc(C(F)(F)F)nc23)cc1 [Example 2, N-(2,2-difluoroethyl)-N-methyl-4-(4-oxo-2-(trifluoromethyl)-4H-pyrido[1,2-a]pyrimidin-9-yl)benzamide] was tested, and the activation at 30 µM was 103%.

O=C(c1ccc(-c2cccn3c(=O)cc(C(F)(F)F)nc23)cc1)N1CCCC(F)(F)C1 [Example 3, 9-(4-((3,3-difluoropiperidin-1-yl)carbonyl)phenyl)-2-(trifluoromethyl)-4H-pyrido[1,2-a]pyrimidin-4-one] showed an activation at 30 µM of 74.8%.

In the case of O=C(c1ccc(-c2cccn3c(=O)cc(C(F)(F)F)nc23)cc1)N1CCC(O)(C(F)(F)F)C1 (stereo not shown) [Example 6, 9-(4-((3-hydroxy-3-(trifluoromethyl)pyrrolidin-1-yl)carbonyl)phenyl)-2 (trifluoromethyl)-4H-pyrido[1,2-a]pyrimidin-4-one], the “hGluR1 flip/30 μM (%)” value is reported as 88.7%.

Work on CC1(O)CCN(C(=O)c2ccc(-c3cccn4c(=O)cc(C(F)(F)F)nc34)cc2)CC1 [Example 7, 9-(4-((4-hydroxy-4-methylpiperidin-1-yl)carbonyl)phenyl)-2-(trifluoromethyl)-4H-pyrido[1,2-a]pyrimidin-4-one] yielded an activation at 30 µM of 94%.

CCC1(O)CCN(C(=O)c2ccc(-c3cccn4c(=O)cc(C(F)(F)F)nc34)cc2)CC1 [Example 8, 9-(4-((4-ethyl-4-hydroxypiperidin-1-yl)carbonyl)phenyl)-2-(trifluoromethyl)-4H-pyrido[1,2-a]pyrimidin-4-one] showed an activation at 30 µM of 79.6%.

Compound O=C(c1ccc(-c2cccn3c(=O)cc(C(F)(F)F)nc23)cc1)N1CCC(O)C(F)(F)C1 (stereo not shown) [Example 10, 9-(4-((3,3-difluoro-4-hydroxypiperidin-1-yl)carbonyl)phenyl)-2-(trifluoromethyl)-4H-pyrido[1,2-a]pyrimidin-4-one] has an activation at 30 µM of 72.7%.

Compound O=C(c1ccc(-c2cccn3c(=O)cc(C(F)(F)F)nc23)cc1)N1CCC(O)(C(F)(F)F)C1 (stereo not shown) [Example 15, 9-(4-((3-hydroxy-3-(trifluoromethyl)pyrrolidin-1-yl)carbonyl)phenyl)-2-(trifluoromethyl)-4H-pyrido[1,2-a]pyrimidin-4-one] has an activation at 30 µM of 79.9%.

O=C(c1ccc(-c2cccn3c(=O)cc(C(F)(F)F)nc23)cc1)N1CCC(O)(C(F)(F)F)C1 (stereo not shown) [Example 16, 9-(4-((3-hydroxy-3-(trifluoromethyl)pyrrolidin-1-yl)carbonyl)phenyl)-2-(trifluoromethyl)-4H-pyrido[1,2-a]pyrimidin-4-one] was tested, and the “hGluR1 flip/30 μM (%)” value was 88.3%.

With O=C(c1ccc(-c2cccn3c(=O)c(Cl)c(C(F)(F)F)nc23)cc1)N1CCOCC1 [Example 17, 3-chloro-9-(4-(morpholin-4-ylcarbonyl)phenyl)-2-(trifluoromethyl)-4H-pyrido[1,2-a]pyrimidin-4-one] the activation at 30 µM was 95.2%.

With O=C(c1ccc(-c2cccn3c(=O)c(Br)c(C(F)(F)F)nc23)cc1)N1CCOC(F)(F)C1 [Example 19, 3-bromo-9-(4-((2,2-difluoromorpholin-4-yl)carbonyl)phenyl)-2-(trifluoromethyl)-4H-pyrido[1,2-a]pyrimidin-4-one] the activation at 30 µM was 79.4%.

Cc1c(C(F)(F)F)nc2c(-c3ccc(C(=O)N4CCOC(C(F)F)C4)cc3)cccn2c1=O (stereo not shown) [Example 23, 9-(4-((2-(difluoromethyl)morpholin-4-yl)carbonyl)phenyl)-3-methyl-2-(trifluoromethyl)-4H-pyrido[1,2-a]pyrimidin-4-one] gave an activation at 30 µM of 83.5%.

In the case of Cc1c(C(F)(F)F)nc2c(-c3ccc(C(=O)N4CC(F)(F)C4)cc3)cccn2c1=O [Example 24, 9-(4-((3,3-difluoroazetidin-1-yl)carbonyl)phenyl)-3-methyl-2-(trifluoromethyl)-4H-pyrido[1,2-a]pyrimidin-4-one], the activation at 30 µM is reported as 76.9%.

For CCN(CCC#N)C(=O)c1ccc(-c2cccn3c(=O)c(Br)c(C(F)(F)F)nc23)cc1 [Example 25, 4-(3-bromo-4-oxo-2-(trifluoromethyl)-4H-pyrido[1,2-a]pyrimidin-9-yl)-N-(2-cyanoethyl)-N-ethylbenzamide], the activation at 30 µM was 91%.
